The values that follow come from patent US20210093730A1, “BIOMARKERS FOR ANTIBODY-DRUG CONJUGATE MONOTHERAPY OR COMBINATION THERAPY” (Immunomedics, Inc., priority 2019, published 2021).

Like-named read-outs stand apart in the source and are kept apart here.

The test system of series [1] is NCI-N87-S120 human gastric cancer cells. Particulars: cells with induced resistance to SN-38; cited from earlier work.
For series [2], the system named is MDA-MB-231 human breast cancer cells. Particulars: cells with induced resistance to SN-38; cited from earlier work.
Series [3] concerns NCI-N87-S120 xenografts. Conditions: in combination with IMMU-132; cited from earlier work.
In series [4] the test system is urothelial carcinoma. Particulars: docetaxel-alone control arm; cited from earlier work.
Series [5] deals with platinum-resistant urothelial cancer. Particulars: cited from earlier work.
Series [6] relates to advanced colorectal cancer. Conditions: cited from earlier work.
In series [7] the test system is TNBC xenografts. Particulars: in combination with sacituzumab govitecan; independent of BRCA1/2 mutation status; cited from earlier work.
Series [8] relates to urothelial carcinoma. Conditions: cited from earlier work.
For series [9], the system named is SCLC. Particulars: cited from earlier work.
Series [10] has as its system SCLC. Conditions: 28 patients; cited from earlier work.
Series [11] has as its system metastatic colorectal cancer. Conditions: cited from earlier work.
The test system of series [12] is relapsed metastatic ovarian cancer. Put plainly: Therapy of relapsed metastatic ovarian cancer with IMMU-130 plus prexasertib (case, Example 7). Conditions: one patient.
In series [13] the test system is recurrent SCLC. Particulars: cited from earlier work.

Turning to `COc1ccc2c3c([nH]c2c1)[C@H](CC(C)C)N1C(=O)[C@H](CCC(=O)OC(C)(C)C)NC(=O)[C@@H]1C3` [Kol43], the “effect on toxicity of SN-38” value in [1] and in [2] was “restored toxicity of SN-38” each time.
On to `CCN(CC)CC(=O)OC1CCN(c2ccc(/C=C(\C#N)c3ccc(OC)c(OC)c3)s2)CC1.CS(=O)(=O)O` [YHO-13351], for which the “median survival of mice” value in series [3] is “increased median survival”. In addition, the “effect on toxicity of SN-38” value in series [1] and in [2] was “restored toxicity of SN-38” each time.
For the molecule `CC(=O)O[C@@]12CO[C@@H]1C[C@H](O)[C@@]1(C)C(=O)[C@H](O)C3=C(C)[C@@H](OC(=O)[C@H](O)[C@@H](NC(=O)OC(C)(C)C)c4ccccc4)C[C@@](O)([C@@H](OC(=O)c4ccccc4)[C@H]21)C3(C)C` [docetaxel], in series [4], the progression-free survival is reported as 10.4 weeks and the response rate is 5%.
On to `COc1ccc2c3c([nH]c2c1)[C@H](C=C(C)C)N1C(=O)[C@@H]2CCCN2C(=O)[C@@H]1C3` [fumitremorgin C], for which the “effect on toxicity of SN-38” value in series [1] and in series [2] was “restored toxicity of SN-38” each time.
With `CCc1c2c(nc3ccc(OC(=O)N4CCC(N5CCCCC5)CC4)cc13)-c1cc3c(c(=O)n1C2)COC(=O)[C@]3(O)CC` [irinotecan], in series [5] (95% confidence interval 1%-17%), the overall response rate was 5%. Also, the “duration of a complete response” value in [5] (human, in vivo) is 33 months. Further, the overall survival in [5] (human, in vivo) is listed as 5.4 months. The response to irinotecan in series [6] (TDP1 IVS12+79 G/G genotype) is listed as 64%; in series [6] (TDP1 IVS12+79 T/T genotype) it was 25%. Further, the entries for the “incidence of grade 3/4 neutropenia” value in [6] (TOP1 IVS4+61 A/A genotype (small sample size)) and in [6] (TOP1 IVS4+61 G/G genotype) were 50% and 8%, respectively.
For the molecule `O=C(c1cc(Cc2n[nH]c(=O)c3ccccc23)ccc1F)N1CCN(C(=O)C2CC2)CC1` [olaparib], the “effect on tumor growth” value in series [7] was “synergistic inhibition of tumor growth”.
As to `Nc1nc2[nH]cc(CCc3ccc(C(=O)N[C@@H](CCC(=O)O)C(=O)O)cc3)c2c(=O)[nH]1` [pemetrexed], the objective response rate in [8] (95% confidence interval 1%-9%) is 5%. In addition, in [8] (in vivo), the median progression-free survival is given as 2.4 months.
Consider `CNCc1ccc(-c2[nH]c3cc(F)cc4c3c2CCNC4=O)cc1` [rucaparib], for which the “effect on tumor growth” value in series [7] is given as “synergistic inhibition of tumor growth”.
`Cn1ncnc1[C@H]1c2n[nH]c(=O)c3cc(F)cc(c23)N[C@@H]1c1ccc(F)cc1` [talazoparib]: in series [7], the “effect on tumor growth” value was “synergistic inhibition of tumor growth”.
On to `CC[C@@]1(O)C(=O)OCc2c1cc1n(c2=O)Cc2cc3c(CN(C)C)c(O)ccc3nc2-1` [topotecan], for which the objective response rate in series [9] (chemoresistant frontline patients) was 5%. Moreover, in series [9] (chemosensitive patients), the objective response rate is 17%. For the same molecule, in series [9] (in vivo), the “grade >=3 anemia” value is recorded as 24%, the “grade >=3 neutropenia” value was 69%, the “grade >=3 thrombocytopenia” value is reported as 1% and the “patients who died from this chemotherapy” value is reported as “approximately 2%”. In [10], the PR is 11%, the median survival is 5 months and the one-year survival is recorded as 3.5%.
On to labetuzumab govitecan, for which, in series [11] (72 assessable patients), the “patients with a reduction in tumor size and plasma CEA levels” value was 38%; the “patients with partial response” value is on record as “One”; the “patients with stable disease” value is on record as 42 patients. Besides, in series [11] (human, in vivo), the “median OS” value is 6.9 months and the “median PFS” value was 3.6 months. Besides, the “response by RECIST criteria” value in series [12] (IMMU-130 10 mg/kg plus prexasertib 105 mg/m^2) is “partial response”. Moreover, in series [12] (IMMU-130 plus prexasertib), the “decrease of the sum of the diameters of the index lesions” value came to 45%; the toxicity result was “transient grade 2 neutropenia and some initial diarrhea”.
Turning to “nivolumab: anti-PD1 checkpoint inhibitor antibody”, the disease-control rate in series [13] (combination with ipilimumab) is on record as 32%. For the same molecule, the response rate in [13] (nivolumab alone) is 10%.
